A short description of experiment [1]: Ability to catalyze Fenton reaction, luminol reaction observed by eye. As to conditions: reaction product solution added to 100 ml luminol solution (1 g/L luminol, 4 g/L sodium hydroxide, 0.3% hydrogen peroxide). The source says:
With respect to the reaction products of the samples, which were confirmed to have iron reducing effects in Example 1, and iron, the fact that the reaction products have abilities to catalyze the Fenton reaction was examined by a luminol reaction.
It should be noted that the luminol reaction means a luminescence reaction caused by oxidizing luminol by generation of hydroxyl radicals.
Small amounts of the aqueous solutions containing the reaction products prepared in Example 1 were each added to 100 ml of a luminol solution (1 g/L luminol, 4 g/L sodium hydroxide, 0.3% hydrogen peroxide), and the presence or absence of luminescence was observed.

The nature of experiment [2]: Luminol reaction, amount of luminescence (hydroxyl radicals generated) measured with AB-2270 Luminescencer Octa. The procedure: In the step of preparing the reaction products of the samples and iron, the ability to catalyze the Fenton reaction was examined with different mixing ratios of the samples to iron.
The above-mentioned samples were each mixed with iron (III) chloride (1 mM FeCl3) at different mixing ratios as shown in FIG. 2 to prepare reaction products in the same manner as in Example 1.
(§1) Then, for each of the aqueous solutions containing the reaction products, the amount of luminescence (amount of hydroxyl radicals generated) provided by the luminol reaction was measured using the AB-2270 Luminescencer Octa to determine the ability of the reaction products to catalyze the Fenton reaction. […]
The above-mentioned samples were added to different concentrations of iron (III) chloride (0.02, 0.1, 0.2, 1, 5, and 10 mM) at the optimum mixing ratios determined in Example 3 (ascorbic acid: 0.5 mM, squeezed grape juice: 40 mg/L in terms of total polyphenols, chaff vinegar stock solution: 50 g/L, with respect to 1 mM FeCl3) to prepare reaction products in the same manner as in Example 1.
as §1

A further experiment relates to Escherichia coli. As to conditions: 10 mM hydrogen peroxide, 1.0x10^6 cfu/mL, 10 minutes of treatment, TTC medium plate.

Structures are written as SMILES.

The values that follow come from patent US9162219B2, “Fenton reaction catalyst produced using reducing organic substance as raw material” (INCORPORATED ADMINISTRATIVE AGENCY, NATIONAL AGRICULTURE …, priority 2011, dated 2015).

On to `O=C1O[C@H]([C@@H](O)CO)C(O)=C1O` [Sample 1, ascorbic acid], for which the “presence or absence of luminescence” value in experiment [1] was “blue fluorescence was observed”. In addition, the “ability to catalyze the Fenton reaction” value in experiment [2] (reaction products with iron at optimum mixing ratios and concentrations (Example 5)) is reported as “very high”. Further, the “optimum mixing concentration for ability to catalyze the Fenton reaction” value in experiment [2] (with respect to 1 mM FeCl3) was “about 0.5 mM”.

Turning to `OO` [hydrogen peroxide], in the experiment with Escherichia coli, the “sterilization effect (survival of Escherichia coli)” value is listed as “a large amount of Escherichia coli survived”.
